From US20250311722A1, “IMPROVED BIOCIDE” (Purgos ApS, priority 2022, published 2025)

Tested on: bacteria
Experiment: NBDA in different PVB dispersions at 32° C., ATP analysis (LuminUltra)
Format: cell-based
Design: bacteria count 6 mo after adding NBDA / bacteria count 9 mo after adding NBDA / bacteria count 1 d after adding NBDA / bacteria count 1 wk after adding NBDA / bacteria count 1 mo after adding NBDA / bacteria count 3 mo after adding NBDA / bacteria count after 4 mo after addition of NBDA / bacteria count after 6 mo after addition of NBDA: unit not given here
Conditions: 0.5% NBDA; for bacteria count 1 d after adding NBDA / bacteria count 1 mo after adding NBDA / bacteria count 1 wk after adding NBDA / bacteria count 3 mo after adding NBDA / bacteria count 6 mo after adding NBDA / bacteria count 9 mo after adding NBDA: 32° C.; for bacteria count after 4 mo after addition of NBDA / bacteria count after 4 wk after addition of NBDA / bacteria count after 6 mo after addition of NBDA / bacteria count after 8 wk after addition of NBDA / bacteria count after 9 mo after addition of NBDA / bacteria count after 12 mo after addition of NBDA: long term
Procedure: The amines selected from stock samples was made from factory prepared stock and sealed solutions delivered in technical quality (95-99.9%). […] Tertiary amine, water and PVB-dispersion was mechanically stirred in IKA vertical fixed blade stirrer for sampling in 2-5 minutes. Conditions was industrial clean, meaning no special precautions was taken to prevent contamination, except normal cleanliness and between operations dishwashing procedures. Working temperatures was 20-25 degre Celsius, and all incubations was made in thermostatic 32-degree Celsius incubator ovens for bottled flasks and open petri dishes. […] The protocol is provided by LuminUltra Technologies. Basically all tested dispersions are manufactured in same way, with only differences in additives, and the variations of origin/source of the waste material (See Example 1). However the specification of the SharkDispersions-all have same basic composition since the stability of the dispersion forces this. The in situ contamination of the production batches may also vary in handling and different storage methods in flasks, IBC's and tanks. In all production the dispersion before treated with tertiary amine is pasteurized due to the general level of production temperatures +90 degrees for several minutes. The biocidal effectivity of NBDA in different PVB dispersions was measured as explained above.

[1] = PVB dispersion SX, without peroxide
[2] = PVB dispersion WX2s, with 0.5% peroxide
[3] = PVB dispersion WX2s, without peroxide
[4] = PVB dispersion WX, with 0.5% peroxide
[5] = PVB dispersion WX, without peroxide

Structure (SMILES): CCCCN(CCO)CCO [NBDA, N-butyldiethanolamine]
- bacteria count 1 d after adding NBDA (PVB dispersion SX, with 0.5% peroxide): 24.3
- bacteria count 1 mo after adding NBDA [1]: 19.5
- bacteria count 1 wk after adding NBDA [1]: 42.1
- bacteria count 3 mo after adding NBDA [1]: 26
- bacteria count 6 mo after adding NBDA [1]: 9
- bacteria count 9 mo after adding NBDA [1]: 15.7
- bacteria count 1 d after adding NBDA [1]: 17.2
- bacteria count 1 mo after adding NBDA [2]: 74.9
- bacteria count 1 wk after adding NBDA [2]: 4.5
- bacteria count 3 mo after adding NBDA [2]: 28.9
- bacteria count 6 mo after adding NBDA [2]: 7.8
- bacteria count 1 d after adding NBDA [2]: 29.7
- bacteria count 1 mo after adding NBDA [3]: 25.2
- bacteria count 1 wk after adding NBDA [3]: 7.2
- bacteria count 3 mo after adding NBDA [3]: 13
- bacteria count 6 mo after adding NBDA [3]: 39.9
- bacteria count 1 d after adding NBDA [3]: 17.6
- bacteria count 1 mo after adding NBDA [4]: 83.4
- bacteria count 1 wk after adding NBDA [4]: 79
- bacteria count 3 mo after adding NBDA [4]: 13.3
- bacteria count 6 mo after adding NBDA [4]: 63.8
- bacteria count 9 mo after adding NBDA [4]: 35
- bacteria count 1 d after adding NBDA [4]: 4.2
- bacteria count 1 mo after adding NBDA [5]: 31.6
- bacteria count 1 wk after adding NBDA [5]: 180
- bacteria count 3 mo after adding NBDA [5]: 7.4
- bacteria count 6 mo after adding NBDA [5]: 11.2
- bacteria count 9 mo after adding NBDA [5]: 57.7
- bacteria count 1 d after adding NBDA [5]: 110
- bacteria count after 4 mo after addition of NBDA (PVB dispersion FX1, 32° C.): 10.1
- bacteria count after 4 wk after addition of NBDA (PVB dispersion FX1, 32° C.): 3.7
- bacteria count after 6 mo after addition of NBDA (PVB dispersion FX1, 32° C.): 1
- bacteria count after 8 wk after addition of NBDA (PVB dispersion FX1, 32° C.): 18.5
- bacteria count after 9 mo after addition of NBDA (PVB dispersion FX1, 32° C.): 34
- bacteria count after 12 mo after addition of NBDA (PVB dispersion FX1, 32° C.): 2.3
- bacteria count after 4 mo after addition of NBDA (PVB dispersion FX2, 32° C.): 13.1
- bacteria count after 4 wk after addition of NBDA (PVB dispersion FX2, 32° C.): 12.4
- bacteria count after 6 mo after addition of NBDA (PVB dispersion FX2, 32° C.): 6.9
- bacteria count after 8 wk after addition of NBDA (PVB dispersion FX2, 32° C.): 4.6
- bacteria count after 9 mo after addition of NBDA (PVB dispersion FX2, 32° C.): 67.9
- bacteria count after 12 mo after addition of NBDA (PVB dispersion FX2, 32° C.): 15.6
- bacteria count after 4 mo after addition of NBDA (PVB dispersion FX6, 32° C.): 9.1
- bacteria count after 4 wk after addition of NBDA (PVB dispersion FX6, 32° C.): 64.3
- bacteria count after 6 mo after addition of NBDA (PVB dispersion FX6, 32° C.): 52.1
- bacteria count after 8 wk after addition of NBDA (PVB dispersion FX6, 32° C.): 12.1
- bacteria count after 9 mo after addition of NBDA (PVB dispersion FX6, 32° C.): 7.3
- bacteria count after 12 mo after addition of NBDA (PVB dispersion FX6, 32° C.): 367
- bacteria count after 4 mo after addition of NBDA (PVB dispersion WX1, 32° C.): 8.1
- bacteria count after 4 wk after addition of NBDA (PVB dispersion WX1, 32° C.): 38.4
- bacteria count after 6 mo after addition of NBDA (PVB dispersion WX1, 32° C.): 5
- bacteria count after 8 wk after addition of NBDA (PVB dispersion WX1, 32° C.): 4.6
- bacteria count after 9 mo after addition of NBDA (PVB dispersion WX1, 32° C.): 8.9
- bacteria count after 12 mo after addition of NBDA (PVB dispersion WX1, 32° C.): 16.8
- bacteria count after 4 mo after addition of NBDA (PVB dispersion WX25, 32° C.): 68
- bacteria count after 4 wk after addition of NBDA (PVB dispersion WX25, 32° C.): 94
- bacteria count after 6 mo after addition of NBDA (PVB dispersion WX25, 32° C.): 170
- bacteria count after 8 wk after addition of NBDA (PVB dispersion WX25, 32° C.): 82
- bacteria count after 9 mo after addition of NBDA (PVB dispersion WX25, 32° C.): 238
- bacteria count after 12 mo after addition of NBDA (PVB dispersion WX25, 32° C.): 181
